In patent US20250262201A1, “COMPOUNDS AND METHODS USEFUL FOR STABILIZING PHENYLALANINE HYDROXYLASE MUTATIONS” (Agios Pharmaceuticals, Inc., priority 2022, published 2025):

These compounds were tested against T1, human PAH with the R408W mutation (Homo sapiens, UniProt P00439, R408W) (assay: Cell Based Phenylalanine Flux Assay). Settings: A375 R408W cells, 24 hrs with compound, then 20 μM sepiapterin and 800 μM 13C9,15N-Phenylalanine for 4 hours; 13C-Tyrosine by LC-MS; average where tested multiple times.
T1 construct: expressed in transfected cells
T1 sequence (P00439 1-452 R408W): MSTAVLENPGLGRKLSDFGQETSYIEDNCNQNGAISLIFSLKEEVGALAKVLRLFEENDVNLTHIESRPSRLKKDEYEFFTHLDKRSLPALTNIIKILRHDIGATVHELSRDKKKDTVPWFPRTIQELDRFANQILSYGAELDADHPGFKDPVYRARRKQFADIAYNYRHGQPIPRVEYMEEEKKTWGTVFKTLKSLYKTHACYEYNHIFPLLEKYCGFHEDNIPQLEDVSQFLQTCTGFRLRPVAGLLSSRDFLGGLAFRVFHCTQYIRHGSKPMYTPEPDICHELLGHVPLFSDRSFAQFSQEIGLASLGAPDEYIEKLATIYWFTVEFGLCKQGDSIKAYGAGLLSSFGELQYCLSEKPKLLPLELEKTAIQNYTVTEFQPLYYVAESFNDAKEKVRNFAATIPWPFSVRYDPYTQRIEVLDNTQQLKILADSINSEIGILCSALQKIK
Parameters: scale not given here

| AC50 | SMILES |
| --- | --- |
| E, E | Cn1ccc(-c2nc(C(F)F)c(C(=O)N3CCc4[nH]cnc4[C@H]3c3ncc4ccccc4n3)o2)n1 (single isomer, unassigned) |
| E, E | CC1CN(C(=O)c2oc(-c3ccccn3)nc2C(F)(F)F)C(c2cc3ccccc3cn2)c2nc[nH]c21 [(4S, 7S) diastereomer of (4-(isoquinolin-3-yl)-7-methyl-6,7-] |

Same assay, conditions: A375 R408W cells, 24 hrs with compound, then 20 μM sepiapterin and 800 μM 13C9,15N-Phenylalanine for 4 hours; 13C-Tyrosine by LC-MS; average where tested multiple times; read-out: AC50

| AC50 [nM] | SMILES |
| --- | --- |
| 1000 to 5000 | CC(C)(O)c1ncc(C(=O)N2CCc3[nH]cnc3C2c2ccc3ccccc3n2)o1 (centres unmarked) |
| 1000 to 5000 | CC(C)(O)c1nnc(C(=O)N2CCc3[nH]cnc3C2c2cc3ccccc3nn2)o1 (centres unmarked) |
| 1000 to 5000 | O=C(c1nnc(CCN2CC(F)C2)o1)N1CCc2[nH]cnc2[C@H]1c1cc2ccccc2cn1 |
| 1000 to 5000 | Cc1cc(F)ccc1-c1nnc(C(=O)N2CCc3[nH]cnc3C2c2ccc3ccccc3n2)o1 (centres unmarked) |

The next lines start with the compound.

| SMILES | AC50 [nM] |
| --- | --- |
| O=C(c1oc(-c2ccccn2)nc1C1CC1)N1CCCc2[nH]cnc2C1c1ccc2ccccc2n1 (centres unmarked) | > 5000 |
| Cc1nnc(CCC(=O)N2CCc3[nH]cnc3C2c2cn3ccccc3n2)o1 (centres unmarked) | > 5000 |
| COCc1ncc(C(=O)N2CCc3[nH]cnc3[C@@H]2c2ccc3ccccc3n2)s1 (single isomer, unassigned) | 1000 to 5000 |
| O=C(c1cnco1)N1CCc2[nH]cnc2C1c1cc2ccccc2nn1 (centres unmarked) | 1000 to 5000 |
| Cc1ncc(CC(=O)N2CCc3[nH]cnc3C2c2cn3ccccc3n2)o1 (centres unmarked) | > 5000 |

Same assay, conditions: A375 cells expressing human R408W PAH; 24 hrs compound incubation; 13C-Tyrosine by LC-MS; average where tested multiple times; read-out: AC50

| AC50 [nM] | SMILES |
| --- | --- |
| 500 to 1000 | CC(C)(F)c1nnc(C(=O)N2CCc3[nH]cnc3C2c2ccc3ccccc3n2)o1 (stereo in doubt) [Example 105, (R)-(5-(2-fluoropropan-2-yl)-1,3,4-oxadiazol-2-yl)(4-(quinolin-2-yl)-6,7-dihydro-1H-imidazo[4,5-c]pyridin-5(4H)-yl)methanone] |
| > 5000 | O=C(c1cnc(-c2ccccn2)o1)N1CCc2[nH]cnc2C1c1ccc2ccccc2n1 (stereo in doubt) [Example 62, (S)-(2-(pyridin-2-yl)oxazol-5-yl)(4-(quinolin-2-yl)-6,7-dihydro-1H-imidazo[4,5-c]pyridin-5(4H)-yl)methanone] |
| < 500 | O=C(c1nnc(-c2ccc(OC(F)(F)F)cn2)o1)N1CCc2[nH]cnc2[C@H]1c1ncc2ccccc2n1 [Example 195, (S)-(4-(quinazolin-2-yl)-6,7-dihydro-1H-imidazo[4,5-c]pyridin-5(4H)-yl)(5-(5-(trifluoromethoxy)pyridin-2-yl)-1,3,4-oxadiazol-2-yl)methanone] |
| 1000 to 5000 | O=C(c1nnc(-c2ccc(C(F)(F)F)cn2)o1)N1CCc2[nH]cnc2[C@@H]1c1ncc2ccccc2n1 [Example 169, (R)-(4-(quinazolin-2-yl)-6,7-dihydro-1H-imidazo[4,5-c]pyridin-5(4H)-yl)(5-(5-(trifluoromethyl)pyridin-2-yl)-1,3,4-oxadiazol-2-yl)methanone] |
| 500 to 1000 | CC(C)(O)c1nnc(C(=O)N2CCc3[nH]cnc3[C@H]2c2cc3ccccc3cn2)o1 [Example 347, (R)-(5-(2-hydroxypropan-2-yl)-1,3,4-oxadiazol-2-yl)(4-(isoquinolin-3-yl)-6,7-dihydro-1H-imidazo[4,5-c]pyridin-5(4H)-yl)methanone] |
| 1000 to 5000 | Cc1ccc(-c2nnc(C(=O)N3CCc4[nH]cnc4[C@@H]3c3ncc4ccccc4n3)o2)nc1 [Example 172, (R)-(5-(5-methylpyridin-2-yl)-1,3,4-oxadiazol-2-yl)(4-(quinazolin-2-yl)-6,7-dihydro-1H-imidazo[4,5-c]pyridin-5(4H)-yl)methanone] |
| 500 to 1000 | c1ccc(-c2nnc(N3CCc4[nH]cnc4[C@H]3c3cc4ccccc4cn3)o2)nc1 [Example 365, (R)-2-(4-(isoquinolin-3-yl)-6,7-dihydro-1H-imidazo[4,5-c]pyridin-5(4H)-yl)-5-(pyridin-2-yl)-1,3,4-oxadiazole] |
| < 500 | Cc1c(-c2nnc(C(=O)N3CCc4[nH]cnc4[C@H]3c3cc4ccccc4cn3)o2)cnn1C [Example 446, (R)-(5-(1,5-dimethyl-1H-pyrazol-4-yl)-1,3,4-oxadiazol-2-yl)(4-(isoquinolin-3-yl)-6,7-dihydro-1H-imidazo[4,5-c]pyridin-5(4H)-yl)methanone] |
| < 500 | Cn1cc(-c2ncc(C(=O)N3CCc4[nH]cnc4[C@H]3c3cc4ccccc4cn3)s2)cn1 [Example 302, (R)-(4-(isoquinolin-3-yl)-6,7-dihydro-1H-imidazo[4,5-c]pyridin-5(4H)-yl)(2-(1-methyl-1H-pyrazol-4-yl)thiazol-5-yl)methanone] |
| > 5000 | O=C(c1nnc(C2CC(F)(F)C2)o1)N1CCc2[nH]cnc2[C@@H]1c1ncc2ccccc2n1 [Example 152, (R)-(5-(3,3-difluorocyclobutyl)-1,3,4-oxadiazol-2-yl)(4-(quinazolin-2-yl)-6,7-dihydro-1H-imidazo[4,5-c]pyridin-5(4H)-yl)methanone] |

Continued, compound first:

| SMILES | AC50 [nM] |
| --- | --- |
| O=C(c1cnn2cc(N3CCC(F)CC3)ccc12)N1CCc2[nH]cnc2[C@H]1c1cc2ccccc2cn1 [Example 474, (R)-(6-(4-fluoropiperidin-1-yl)pyrazolo[1,5-a]pyridin-3-yl)(4-(isoquinolin-3-yl)-6,7-dihydro-1H-imidazo[4,5-c]pyridin-5(4H)-yl)methanone] | 1000 to 5000 |
| O=C(c1cnn2cc(-c3ccncc3)ccc12)N1CCc2[nH]cnc2[C@H]1c1cc2ccccc2cn1 [Example 486, (R)-(4-(isoquinolin-3-yl)-6,7-dihydro-1H-imidazo[4,5-c]pyridin-5(4H)-yl)(6-(pyridin-4-yl)pyrazolo[1,5-a]pyridin-3-yl)methanone] | < 500 |
| COCCc1ccc2c(C(=O)N3CCc4[nH]cnc4[C@H]3c3cc4ccccc4cn3)cnn2c1 [Example 453, (R)-(4-(isoquinolin-3-yl)-6,7-dihydro-1H-imidazo[4,5-c]pyridin-5(4H)-yl)(6-(2-methoxyethyl)pyrazolo[1,5-a]pyridin-3-yl)methanone] | < 500 |
| CC(C)(O)c1nc(Br)c(C(=O)N2CCc3[nH]cnc3C2c2ccc3ccccc3n2)o1 (stereo in doubt) [Example 97, (R)-(4-bromo-2-(2-hydroxypropan-2-yl)oxazol-5-yl)(4-(quinolin-2-yl)-6,7-dihydro-1H-imidazo[4,5-c]pyridin-5(4H)-yl)methanone] | < 500 |
| O=C(Cc1cncs1)N1CCc2[nH]cnc2[C@H]1c1cc2ccccc2cn1 [Example 373, (R)-1-(4-(isoquinolin-3-yl)-6,7-dihydro-1H-imidazo[4,5-c]pyridin-5(4H)-yl)-2-(thiazol-5-yl)ethanone] | < 500 |
| C[C@@H]1CN(C(=O)c2nnc(C(C)(C)C)o2)[C@@H](c2cc3ccccc3cn2)c2nc[nH]c21 [Example 429, (5-(tert-butyl)-1,3,4-oxadiazol-2-yl)((4S,7R)-4-(isoquinolin-3-yl)-7-methyl-6,7-dihydro-1H-imidazo[4,5-c]pyridin-5(4H)-yl)methanone] | 1000 to 5000 |
| O=C(c1cnn2cc(-c3ncccc3F)ccc12)N1CCc2[nH]cnc2[C@H]1c1cc2ccccc2cn1 [Example 482, (R)-(6-(3-fluoropyridin-2-yl)pyrazolo[1,5-a]pyridin-3-yl)(4-(isoquinolin-3-yl)-6,7-dihydro-1H-imidazo[4,5-c]pyridin-5(4H)-yl)methanone] | < 500 |
| O=C(CC1CC1)N1CCc2[nH]cnc2C1c1ccc2ccccc2n1 (stereo in doubt) [Example 41, (R)-2-cyclopropyl-1-(4-(quinolin-2-yl)-6,7-dihydro-1H-imidazo[4,5-c]pyridin-5(4H)-yl)ethanone] | < 500 |
| CC(O)c1nc(Cl)c(C(=O)N2CCc3[nH]cnc3[C@H]2c2ccc3ccccc3n2)o1 (single isomer, unassigned) [Example 138] | < 500 |
| C[C@@H]1CN(C(=O)c2oc(C(C)(C)O)nc2C2CC2)[C@@H](c2cc3ccccc3cn2)c2nc[nH]c21 [Example 401, (4-cyclopropyl-2-(2-hydroxypropan-2-yl)oxazol-5-yl)((4S,7R)-4-(isoquinolin-3-yl)-7-methyl-6,7-dihydro-1H-imidazo[4,5-c]pyridin-5(4H)-yl)methanone] | 1000 to 5000 |
| O=C(c1n[nH]c2ccccc12)N1CCc2[nH]cnc2[C@H]1c1cc2ccccc2cn1 [Example 359, (3a,7a-dihydro-1H-indazol-3-yl)((R)-4-(isoquinolin-3-yl)-6,7-dihydro-1H-imidazo[4,5-c]pyridin-5(4H)-yl)methanone] | < 500 |
| CC(O)c1nc(Cl)c(C(=O)N2CCc3[nH]cnc3[C@@H]2c2ccc3ccccc3n2)o1 (single isomer, unassigned) [Example 136] | 1000 to 5000 |
| O=C(CC1CC(F)C1)N1CCc2[nH]cnc2C1c1ccc2ccccc2n1 (stereo in doubt) [Example 54, (S)-2-(3-fluorocyclobutyl)-1-(4-(quinolin-2-yl)-6,7-dihydro-1H-imidazo[4,5-c]pyridin-5(4H)-yl)ethanone] | 1000 to 5000 |
| O=C(c1cnn2cc(C3CC3)ccc12)N1CCc2[nH]cnc2[C@H]1c1cc2ccccc2cn1 [Example 452, (R)-(6-cyclopropylpyrazolo[1,5-a]pyridin-3-yl)(4-(isoquinolin-3-yl)-6,7-dihydro-1H-imidazo[4,5-c]pyridin-5(4H)-yl)methanone] | < 500 |
